Measurements reported in US11224609B2, “Mithramycin derivatives having increased selectivity and anti-cancer activity” (University of Kentucky Research Foundation, priority 2017, dated 2022).
“And” between values parts separate entries of the source, which are not always exact repeats. Identical values can stand only once.

Legend:
[1] = system: TC-32 (Ewing sarcoma, EWS-FLI1 Type 1) cell line; settings: for TC-32 Ewing sarcoma EWS-FLI1 Type 1 GI50: 72 h growth inhibition, TC-32 cells; for GI50 ratio PC-3:TC-32: selectivity, GI50 in PC-3 over GI50 in TC-32
[2] = system: HeLa cells; assay: 72 h GI50 assay in HeLa; settings: read-out: HeLa GI50; 72 h growth inhibition
[3] = system: VCaP prostate cancer cells (TMPRSS2-ERG); assay: 72 h GI50 assay in VCaP; settings: for GI50: read-out: VCaP Prostate Cancer TMPRSS2-ERG GI50, 72 h growth inhibition, VCaP cells; for Ratio of median GI50 Prostate cells lacking TMPRSS2-ERG:VCaP: selectivity for VCaP over other prostate cancer cell lines
[4] = system: PANC-1 cells; assay: 72 h GI50 assay in PANC-1; settings: read-out: PANC-1 GI50; 72 h growth inhibition
[5] = system: A549 cells; assay: 72 h GI50 assay in A549; settings: read-out: A549 GI50; 72 h growth inhibition
[6] = system: RD-ES Ewing sarcoma cells (EWS-FLI1 Type 2); assay: 72 h GI50 assay in RD-ES; settings: read-out: RD-ES EWS-FLI1 Type 2 GI50; 72 h growth inhibition
[7] = system: DMS 114 cells; assay: 72 h GI50 assay in DMS 114; settings: read-out: DMS 114 GI50; 72 h growth inhibition
[8] = system: ES-7 Ewing sarcoma cells (EWS-FLI1 Type 4); assay: 72 h GI50 assay in ES-7; settings: read-out: ES-7 EWS-FLI1 Type 4 GI50; 72 h growth inhibition
[9] = system: prostate cell lines lacking TMPRSS2-ERG; assay: Median GI50 in prostate cell lines lacking TMPRSS2-ERG; settings: read-out: Median GI50 in prostate cell lines, lacking TMPRSS2-ERG; unit inferred
[10] = system: TC-71 Ewing sarcoma cells (EWS-FLI1 Type 1); settings: 72 h growth inhibition
[11] = system: ES-2 Ewing sarcoma cells (EWS-FLI1 Type 3); assay: 72 h GI50 assay in ES-2; settings: read-out: ES-2 EWS-FLI1 Type 3 GI50; 72 h growth inhibition
[12] = system: HCT 116 cells; assay: 72 h GI50 assay in HCT 116; settings: read-out: HCT 116 GI50; 72 h growth inhibition
[13] = system: DU 145 cells; assay: 72 h GI50 assay in DU 145; settings: read-out: DU 145 GI50; 72 h growth inhibition
[14] = system: Ewing sarcoma cell lines (TC-32, 5838, RD-ES, TC-71, A-673, ES-2, ES-7, ES-8); assay: Median GI50 in panel of Ewing sarcoma cell lines; settings: for Ratio of Median GI50 non-Ewing sarcoma:Ewing sarcoma (Selectivity Index): median GI50 non-Ewing panel over Ewing panel; for GI50: read-out: Median GI50 in Ewing sarcoma cell lines, median over 8 Ewing sarcoma cell lines, 72 h; for Selectivity Index ratio Analogues:MTM (1): selectivity index relative to MTM (1)
[15] = system: LNCaP cells; assay: 72 h GI50 assay in LNCaP; settings: read-out: LNCaP GI50; 72 h growth inhibition
[16] = system: PC-3 (prostate cancer, no ETS translocation) cell line; assay: 72 h growth inhibition (GI50) assay in PC-3; settings: read-out: PC-3 Prostate cancer No ETS Translocation GI50; 72 h growth inhibition, PC-3 cells
[17] = system: 5838 Ewing sarcoma cells (EWS-ERG); assay: 72 h GI50 assay in 5838; settings: for GI50: read-out: 5838 Ewing Sarcoma EWS-ERG GI50, 72 h growth inhibition, 5838 cells; for Ratio of median GI50 Non-Ewing sarcoma cell lines (cf Table 3):5838: selectivity for 5838 cells
[18] = system: ES-8 Ewing sarcoma cells (EWS-FLI1 Type 2); assay: 72 h GI50 assay in ES-8; settings: read-out: ES-8 EWS-FLI1 Type 2 GI50; 72 h growth inhibition
[19] = system: A-673 Ewing sarcoma cells (EWS-FLI1 Type 1); assay: 72 h GI50 assay in A-673; settings: read-out: A-673 EWS-FLI1 Type 1 GI50; 72 h growth inhibition

| SMILES | TC-32 Ewing sarcoma EWS-FLI1 Type 1 GI50 [1] | GI50 ratio PC-3:TC-32 [1] | GI50 [2] | GI50 [3] | Ratio of median GI50 Prostate cells lacking TMPRSS2-ERG:VCaP [3] | GI50 [4] | GI50 [5] | GI50 [6] | GI50 [7] | GI50 [8] | GI50 [9] | TC-71 EWS-FLI1 Type 1 GI50 [10] | GI50 [11] | GI50 [12] | GI50 [13] | Ratio of Median GI50 non-Ewing sarcoma:Ewing sarcoma (Selectivity Index) [14] | GI50 [14] | Selectivity Index ratio Analogues:MTM (1) [14] | GI50 [15] | GI50 [16] | other results |
| --- | --- | --- | --- | --- | --- | --- | --- | --- | --- | --- | --- | --- | --- | --- | --- | --- | --- | --- | --- | --- | --- |
| COC(=O)C(Cc1c[nH]c2cc(F)ccc12)NC(=O)C(OC)C1Cc2cc3cc(OC4CC(OC5CC(O)C(O)C(C)O5)C(O)C(C)O4)c(C)c(O)c3c(O)c2C(=O)C1OC1CC(OC2CC(OC3CC(C)(O)C(O)C(C)O3)C(O)C(C)O2)C(O)C(C)O1 (stereo not drawn) [Analogue 56] | 27 nM | 6.9 | 1550 nM | 319 nM | 0.6 | 386 nM | 941 nM | 1000 nM | 2470 nM | 1660 nM | 187 nM | 640 nM | 3310 nM | 419 nM | 157 nM | 0.9 | 466 nM | 0.6 | 1960 nM | 187 nM | GI50 [17]: 466 nM; Ratio of median GI50 Non-Ewing sarcoma cell lines (cf Table 3):5838 [17]: 0.9; GI50 [18]: 401 nM; GI50 [19]: 262 nM |
| COC(=O)C(Cc1c[nH]c2ccccc12)NC(=O)C(OC)C1Cc2cc3cc(OC4CC(OC5CC(O)C(O)C(C)O5)C(O)C(C)O4)c(C)c(O)c3c(O)c2C(=O)C1OC1CC(OC2CC(OC3CC(C)(O)C(O)C(C)O3)C(O)C(C)O2)C(O)C(C)O1 (stereo not drawn) [MTMSA-Trp (3), Mithramycin SA-Tryptophan, reference compound] | 16 nM | 4.8 | 323 nM | 60 nM | 1.3 | 161 nM | 89 nM | 47 nM | 151 nM | 32 nM | 76 nM | 57 nM | 133 nM | 30 nM | 46 nM | 2.3 and 1.5 | 47 nM | 1.5 | 109 nM | 76 nM | GI50 [17]: 6 nM; Ratio of median GI50 Non-Ewing sarcoma cell lines (cf Table 3):5838 [17]: 18.2; GI50 [18]: 99 nM; GI50 [19]: 81 nM |
